Among the data in patent US8895585B2, “Nicotinamide derivative or salt thereof” (FUJIFILM Corporation, priority 2010, dated 2014) are IC50 values, retold here.

Structures can show the parent of a compound that is named as a salt. Where two headings read alike, the source gives them in different places. Bounds are passed on as bounds.

The target of experiment [1] is T1, glutathione S-transferase (GST)-fused full-length human Syk protein (Homo sapiens, UniProt P43405).
T1 construct: (GST)-fused full-length human Syk protein; GST (glutathione S-transferase); purchased Carna Biosciences
Nature of the experiment: Syk enzyme assay. It counts as biochemical. The method in brief: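 IC50 values come from a time-resolved FRET readout (615 and 665 nm) of substrate phosphorylation, measured after an EDTA stop and 1 h antibody binding. The kinase reaction ran 40 min at room temperature with 27 μM ATP and 0.4 μM biotin-peptide, following a 15 min compound preincubation with baculovirus-made GST-full-length human Syk.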

The next experiment relates to THP-1 cells. Briefly: TNFα generation assay. It counts as cell-based, human. To be noted: Homo sapiens. In short, it runs like this: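 Secreted TNFα in supernatant quantified by ELISA or AlphaLISA after 7 h culture on human IgG-coated wells (10 μg/ml coating). Cells were IFN-γ-differentiated THP-1 (10 ng/ml, 2 days), exposed to compound for 30 min at room temperature before plating.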

Where [2] appears, read: Syk enzyme assay, Test Example 1, read-out: IC50 of Syk-inhibitory activity.
[3] abbreviates: THP-1, THP-1 cells, Table 22, read-out: IC50 in TNFα generation assay.

Regarding `CCC[C@@H](Nc1nc(Nc2ccnc(-n3nccn3)c2)c(C(N)=O)cc1F)[C@H](C)N` [Example 006-221, 2-((2-(2H-1,2,3-triazol-2-yl)pyridin-4-yl)amino)-6-(((2S,3R)-2-aminohexan-3-yl)amino)-5-fluoronicotinamide], the IC50 in experiment [1] (setting [2]) is below 10 nM; in the experiment on THP-1 cells (setting [3]) it was 65 to 130 nM.
Consider `NC(=O)c1cc(F)c(N[C@@H]2CCCC[C@@H]2N)nc1Nc1ccc2ncccc2c1` [Example 37-3, 6-((1R,2S)-2-aminocyclohexylamino)-5-fluoro-2-((quinolin-6-yl)amino)nicotinamide], for which the IC50 in experiment [1] (setting [2]) is below 10 nM; in the experiment with THP-1 cells (setting [3]), below 65 nM.
Regarding `NC(=O)c1cc(F)c(NC2CCCCC2N)nc1Nc1ccnc(-c2ccc3cnccc3c2)c1` (stereo not drawn) [Example 002-193], the IC50 in experiment [1] (setting [2]) is below 10 nM; in the experiment on THP-1 cells (setting [3]), 130 to 200 nM.
`NC(=O)c1cc(F)c(NC2CCCCC2N)nc1Nc1ccc2nc(OCCN3CCCC3=O)ccc2c1` (stereo not drawn) [Example 002-113]: the IC50 in experiment [1] (setting [2]) was below 10 nM; in the experiment on THP-1 cells (setting [3]) it was 130 to 200 nM.
Regarding `Cc1nn(CC(F)F)c2cc(Nc3nc(N[C@H](CC4CC4)[C@H](C)N)c(F)cc3C(N)=O)ccc12` [Example 006-489, 6-(((2R,3S)-3-amino-1-cyclopropylbutan-2-yl)amino)-2-((1-(2,2-difluoroethyl)-3-methyl-1H-indazol-6-yl)amino)-5-fluoronicotinamide], the IC50 in experiment [1] (setting [2]) was below 10 nM; in the experiment with THP-1 cells (setting [3]), 130 to 200 nM.
For `Cn1cnc2cc(Nc3nc(N[C@@H]4CCCC[C@@H]4N)c(F)cc3C(N)=O)cnc21` [Example 004-027] the same measures were 10 to 50 nM and 130 to 200 nM.
In the same order, the values of `NC(=O)c1cc(F)c(NC2CCCCC2N)nc1Nc1cnc2ncccc2c1` (stereo not drawn) [Example 010-002] are 10 to 50 nM and 130 to 200 nM.
In the case of `CCC[C@@H](Nc1nc(Nc2ccc3c(cnn3C)c2)c(C(N)=O)cc1F)[C@H](C)N` [Example 006-236, 6-(((2S,3R)-2-aminohexan-3-yl)amino)-5-fluoro-2-((1-methyl-1H-indazol-5-yl)amino)nicotinamide], the IC50 in experiment [1] (setting [2]) was below 10 nM; in the experiment on THP-1 cells (setting [3]), below 65 nM.
Consider `NC(=O)c1cc(F)c(N[C@@H]2CCCC[C@@H]2N)nc1Nc1cncc(-c2ccccc2F)c1` (relative stereo) [Example 004-143, 6-(cis-2-aminocyclohexylamino)-5-fluoro-2-((5-(2-fluorophenyl)pyridin-3-yl)amino)-nicotinamide], for which the IC50 in experiment [1] (setting [2]) is below 10 nM; in the experiment with THP-1 cells (setting [3]), 65 to 130 nM.
For `CC[C@@H](Nc1nc(Nc2ccc3c(c2)c(C)nn3CC(F)F)c(C(N)=O)cc1F)[C@H](C)N` [Example 006-526, 6-(((2S,3R)-2-aminopentan-3-yl)amino)-2-((1-(2,2-difluoroethyl)-3-methyl-1H-indazol-5-yl)amino)-5-fluoronicotinamide] the same measures were below 10 nM and below 65 nM.
For the molecule `CCCC[C@H](CN)Nc1nc(Nc2ccc3cnn(C)c3c2)c(C(N)=O)cc1F` [Example 006-360, (R)-6-((1-aminohexan-2-yl)amino)-5-fluoro-2-((1-methyl-1H-indazol-6-yl)amino)nicotinamide], the IC50 in experiment [1] (setting [2]) was below 10 nM; with THP-1 cells (setting [3]), 65 to 130 nM.
For `NC(=O)c1cc(F)c(NC2CCCCC2N)nc1Nc1ccnc(-n2cncn2)c1` (stereo not drawn) [Example 002-114], the values for the IC50 (in experiment [1] (setting [2]); in the experiment with THP-1 cells (setting [3])) were below 10 nM and below 65 nM, respectively.
In the same order, the values of `COc1ccc2ncc(Nc3nc(N[C@@H](CN)CC(C)C)c(F)cc3C(N)=O)cc2c1` [Example 006-232, (R)-6-((1-amino-4-methylpentan-2-yl)amino)-5-fluoro-2-((6-methoxyquinolin-3-yl)amino)nicotinamide] are below 10 nM and 130 to 200 nM.
Regarding `Cc1ccc(Nc2nc(N[C@@H](CN)CC(C)C)c(F)cc2C(N)=O)cn1` [Example 006-233, (R)-6-((1-amino-4-methylpentan-2-yl)amino)-5-fluoro-2-((6-methylpyridin-3-yl)amino)nicotinamide], the IC50 in experiment [1] (setting [2]) fell in the range of 10 to 50 nM; with THP-1 cells (setting [3]), 130 to 200 nM.
As to `Cc1cc2cc(Nc3nc(N[C@@H]4CCCC[C@@H]4N)c(F)cc3C(N)=O)ccc2[nH]1` (relative stereo) [Example 004-071, 6-(cis-2-aminocyclohexylamino)-5-fluoro-2-((2-methyl-1H-indol-5-yl)amino)nicotinamide], the IC50 in experiment [1] (setting [2]) was below 10 nM; in the experiment with THP-1 cells (setting [3]), 130 to 200 nM.
For `Cn1c(F)cc2cc(Nc3nc(N[C@@H]4CCCC[C@@H]4N)c(F)cc3C(N)=O)ccc21` (relative stereo) [Example 004-117, 6-(cis-2-aminocyclohexylamino)-5-fluoro-2-((2-fluoro-1-methyl-1H-indol-5-yl)amino)-nicotinamide], the IC50 in experiment [1] (setting [2]) was below 10 nM; with THP-1 cells (setting [3]), 130 to 200 nM.
On to `NC(=O)c1cc(F)c(N[C@@H]2CCCC[C@@H]2N)nc1Nc1cncc(F)c1` (relative stereo) [Example 004-105, 6-(cis-2-aminocyclohexylamino)-5-fluoro-2-((5-fluoropyridin-3-yl)amino)nicotinamide], for which the figures for the IC50 (in experiment [1] (setting [2]); with THP-1 cells (setting [3])) were 10 to 50 nM and 130 to 200 nM, respectively.
Consider `COC[C@@H](Nc1nc(Nc2ccnc(OC)c2)c(C(N)=O)cc1F)[C@H](C)N` [Example 006-470, 6-(((2S,3S)-3-amino-1-methoxybutan-2-yl)amino)-5-fluoro-2-((2-methoxypyridin-4-yl)amino)nicotinamide], for which the IC50 in experiment [1] (setting [2]) lay within 10 to 50 nM; in the experiment with THP-1 cells (setting [3]), 65 to 130 nM.
Consider `CCCC[C@@H](Nc1nc(Nc2ccc3c(cnn3CCF)c2)c(C(N)=O)cc1F)[C@H](C)N` [Example 006-418, 6-(((2S,3R)-2-aminoheptan-3-yl)amino)-5-fluoro-2-((1-(2-fluoroethyl)-1H-indazol-5-yl)amino)nicotinamide], for which the IC50 in experiment [1] (setting [2]) was below 10 nM; with THP-1 cells (setting [3]), 65 to 130 nM.
In the same order, the values of `COc1cc(Nc2nc(N[C@@H]3CCOC[C@@H]3N)c(F)cc2C(N)=O)ccn1` [Example 006-531, 6-(((3R,4R)-3-aminotrahydro-2H-pyran-4-yl)amino)-5-fluoro-2-((2-methoxypyridin-4-yl)amino)nicotinamide] are below 10 nM and 65 to 130 nM.
In the same order, the values of `CC(C)C[C@H](CN)Nc1nc(Nc2ccc3nccnc3c2)c(C(N)=O)cc1F` [Example 006-212, (R)-6-((1-amino-4-methylpentan-2-yl)amino)-5-fluoro-2-((quinoxalin-6-yl)amino)nicotinamide] are below 10 nM and 130 to 200 nM.
Regarding `CC[C@@H](Nc1nc(Nc2ccc(N3CCOCC3)nc2)c(C(N)=O)cc1F)[C@H](C)N` [Example 006-265, 6-(((2S,3R)-2-aminopentan-3-yl)amino)-5-fluoro-2-((6-morpholinopyridin-3-yl)amino)nicotinamide], the values for the IC50 (in experiment [1] (setting [2]); with THP-1 cells (setting [3])) were 10 to 50 nM and 130 to 200 nM, respectively.
In the same order, the values of `NC(=O)c1cc(F)c(N[C@@H]2CCCC[C@@H]2N)nc1Nc1cncc(N2CCCCC2)c1` (relative stereo) [Example 004-050] are 10 to 50 nM and 130 to 200 nM.
In the case of `NC(=O)c1cc(F)c(NC2CCCCC2N)nc1Nc1ccnc(-c2ccco2)c1` (stereo not drawn) [Example 002-053], the values for the IC50 (in experiment [1] (setting [2]); with THP-1 cells (setting [3])) were below 10 nM and 65 to 130 nM, respectively.
On to `NC(=O)c1cc(F)c(N[C@@H]2CCCC[C@@H]2N)nc1Nc1ccnc(-n2cccn2)c1` (relative stereo) [Example 006-130, 2-((2-(1H-pyrazol-1-yl)pyridin-4-yl)amino)-6-((cis-2-aminocyclohexyl)amino)-5-fluoronicotinamide], for which the IC50 is 10 to 50 nM in experiment [1] (setting [2]) and 65 to 130 nM in the experiment with THP-1 cells (setting [3]).
For the molecule `Cc1cncc(Nc2nc(N[C@@H]3CCCC[C@@H]3N)c(Cl)cc2C(N)=O)c1` (relative stereo) [Example 34, 6-(cis-2-aminocyclohexylamino)-5-chloro-2-(5-methylpyridin-3-ylamino)nicotinamide•hydrochloride], the IC50 in experiment [1] (read-out: Syk-inhibitory activity (IC50)) is at most 1000 nM; in the experiment with THP-1 cells (THP-1, 7 h, IFN-γ-differentiated THP-1 cells on human IgG-coated plate, cultured 7 hours, read-out: TNFα generation inhibitory activity (IC50)), at most 200 nM.
Consider `NC(=O)c1cc(F)c(N[C@@H]2CCCC[C@@H]2N)nc1Nc1ccnc2c1ccn2CC1CC1` [Example 004-040], for which the values for the IC50 (in experiment [1] (setting [2]); in the experiment on THP-1 cells (setting [3])) were below 10 nM and 130 to 200 nM, respectively.
In the same order, the values of `CC[C@H](N)[C@@H](CC)Nc1nc(Nc2ccnc(OC)c2)c(C(N)=O)cc1F` [Example 006-381, 6-(((3R,4S)-4-aminohexan-3-yl)amino)-5-fluoro-2-((2-methoxypyridin-4-yl)amino)nicotinamide] are 10 to 50 nM and 65 to 130 nM.
For `COCCn1nc(C)c2ccc(Nc3nc(N[C@H](CC4CC4)[C@H](C)N)c(F)cc3C(N)=O)cc21` [Example 006-487, 6-(((2R,3S)-3-amino-1-cyclopropylbutan-2-yl)amino)-5-fluoro-2-((1-(2-methoxyethyl)-3-methyl-1H-indazol-6-yl)amino)nicotinamide] the same measures were below 10 nM and 130 to 200 nM.
In the same order, the values of `CCCc1nn(CCOC)c2ccc(Nc3nc(N[C@@H]4CCCC[C@@H]4N)c(F)cc3C(N)=O)cc12` [Example 006-458, 6-(((1R,2S)-2-aminocyclohexyl)amino)-5-fluoro-2-((1-(2-methoxyethyl)-3-propyl-1H-indazol-5-yl)amino)nicotinamide] are below 10 nM and 130 to 200 nM.
